# Earlier results in US20220304303A1, “INSECT REPELLENT PATCHES” (The Natural Patch Company Pty Ltd, priority 2021, published 2022).
# Settings: products containing between 10% and 30% DEET, used as directed
structure (smiles),measurement,value
"CCN(CC)C(=O)c1cccc(C)c1 [DEET, Diethyltoluamide]",safety in use on children and adults,"safe to use on children, as well as adults"
